Assay results as given in ChEMBL document CHEMBL3885881, “DrugMatrix”.

Species on record: Rattus norvegicus
Assay: DrugMatrix - Regimen: Daily Repeat
Assay type: toxicity, organism-based, Sprague-Dawley
Parameters: regimen Daily Repeat, gender Male, age 6-8 weeks
Details: in vivo, po, route oral GAVAGE, vehicle 100 % WATER; for ABSOLUTE BASOPHIL / ABSOLUTE EOSINOPHIL / ABSOLUTE LYMPHOCYTE / ABSOLUTE MONOCYTE / ABSOLUTE SEGMENTED NEUTROPHIL / BASOPHIL / EOSINOPHIL / ERYTHROCYTE COUNT / HEMATOCRIT / HEMOGLOBIN / LEUKOCYTE COUNT / LYMPHOCYTE / MEAN CORPUSCULAR HEMOGLOBIN / MEAN CORPUSCULAR HEMOGLOBIN CONCENTRATION / MEAN CORPUSCULAR VOLUME / MONOCYTE / NEUTROPHIL / NUCLEATED RED BLOOD CELLS / PLATELET COUNT: tissue Blood; for ALANINE AMINOTRANSFERASE / ALBUMIN / ALKALINE PHOSPHATASE / ASPARTATE AMINOTRANSFERASE / BLOOD UREA NITROGEN / CARBON DIOXIDE / CHLORIDE / CHOLESTEROL / CREATINE PHOSPHOKINASE / CREATININE / GLUCOSE / LACTATE DEHYDROGENASE / LIPASE / PHOSPHORUS / POTASSIUM / SODIUM / TOTAL BILIRUBIN / TOTAL PROTEIN / URIC ACID: tissue Plasma
[1] = 0 mg/kg, 72 h, dose level Control, time 3 day
[2] = 0 mg/kg, 120 h, dose level Control, time 5 day
[3] = 27 mg/kg, 72 h, dose level Low, time 3 day

SMILES: CNNCc1ccc(C(=O)NC(C)C)cc1 [PROCARBAZINE]
- ABSOLUTE BASOPHIL [1]: 0 CELLS/uL
- ABSOLUTE EOSINOPHIL [1]: 0 CELLS/uL
- ABSOLUTE LYMPHOCYTE [1]: 7802.17 CELLS/uL
- ABSOLUTE MONOCYTE [1]: 13.5 CELLS/uL
- ABSOLUTE SEGMENTED NEUTROPHIL [1]: 617.67 CELLS/uL
- BASOPHIL [1]: 0%
- EOSINOPHIL [1]: 0%
- ERYTHROCYTE COUNT [1]: 5.35 x10E6/uL
- HEMATOCRIT [1]: 33.02%
- HEMOGLOBIN [1]: 12.88 G/DL
- LEUKOCYTE COUNT [1]: 8.43 x10E3/uL
- LYMPHOCYTE [1]: 92.67%
- MEAN CORPUSCULAR HEMOGLOBIN [1]: 24.12 pg
- MEAN CORPUSCULAR HEMOGLOBIN CONCENTRATION [1]: 39.03 G/DL
- MEAN CORPUSCULAR VOLUME [1]: 61.8 fL
- MONOCYTE [1]: 0.17%
- NEUTROPHIL [1]: 7.17%
- NUCLEATED RED BLOOD CELLS [1]: 0 /100WBC
- PLATELET COUNT [1]: 1124.83 x10E3/uL
- ALANINE AMINOTRANSFERASE [1]: 54.17 u/L
- ALBUMIN [1]: 4.07 G/DL
- ALKALINE PHOSPHATASE [1]: 383.83 u/L
- ASPARTATE AMINOTRANSFERASE [1]: 82.17 u/L
- BLOOD UREA NITROGEN [1]: 13.67 mg/dL
- CARBON DIOXIDE [1]: 31 mmol/L
- CHLORIDE [1]: 100.83 MEQ/L
- CHOLESTEROL [1]: 65.17 mg/dL
- CREATINE PHOSPHOKINASE [1]: 228.33 u/L
- CREATININE [1]: 0.12 mg/dL
- GLUCOSE [1]: 148 mg/dL
- LACTATE DEHYDROGENASE [1]: 97.83 u/L
- LIPASE [1]: 9.17 u/L
- PHOSPHORUS [1]: 9.75 mg/dL
- POTASSIUM [1]: 5.85 MEQ/L
- SODIUM [1]: 147.02 MEQ/L
- TOTAL BILIRUBIN [1]: 0.18 mg/dL
- TOTAL PROTEIN [1]: 6.1 G/DL
- URIC ACID [1]: 0.5 mg/dL
- ABSOLUTE BASOPHIL [2]: 0 CELLS/uL
- ABSOLUTE EOSINOPHIL [2]: 0 CELLS/uL
- ABSOLUTE LYMPHOCYTE [2]: 10538 CELLS/uL
- ABSOLUTE MONOCYTE [2]: 15.83 CELLS/uL
- ABSOLUTE SEGMENTED NEUTROPHIL [2]: 762.83 CELLS/uL
- BASOPHIL [2]: 0%
- EOSINOPHIL [2]: 0%
- ERYTHROCYTE COUNT [2]: 5.49 x10E6/uL
- HEMATOCRIT [2]: 34.63%
- HEMOGLOBIN [2]: 13.72 G/DL
- LEUKOCYTE COUNT [2]: 11.32 x10E3/uL
- LYMPHOCYTE [2]: 92.67%
- MEAN CORPUSCULAR HEMOGLOBIN [2]: 24.97 pg
- MEAN CORPUSCULAR HEMOGLOBIN CONCENTRATION [2]: 39.57 G/DL
- MEAN CORPUSCULAR VOLUME [2]: 63.05 fL
- MONOCYTE [2]: 0.17%
- NEUTROPHIL [2]: 7.17%
- NUCLEATED RED BLOOD CELLS [2]: 0.17 /100WBC
- PLATELET COUNT [2]: 802 x10E3/uL
- ALANINE AMINOTRANSFERASE [2]: 50.5 u/L
- ALBUMIN [2]: 4.07 G/DL
- ALKALINE PHOSPHATASE [2]: 336.83 u/L
- ASPARTATE AMINOTRANSFERASE [2]: 81 u/L
- BLOOD UREA NITROGEN [2]: 14.17 mg/dL
- CARBON DIOXIDE [2]: 32 mmol/L
- CHLORIDE [2]: 98.33 MEQ/L
- CHOLESTEROL [2]: 69.17 mg/dL
- CREATINE PHOSPHOKINASE [2]: 253.33 u/L
- CREATININE [2]: 0.13 mg/dL
- GLUCOSE [2]: 153.67 mg/dL
- LACTATE DEHYDROGENASE [2]: 157 u/L
- LIPASE [2]: 9 u/L
- PHOSPHORUS [2]: 10.78 mg/dL
- POTASSIUM [2]: 6.11 MEQ/L
- SODIUM [2]: 144.57 MEQ/L
- TOTAL BILIRUBIN [2]: 0.15 mg/dL
- TOTAL PROTEIN [2]: 6.05 G/DL
- URIC ACID [2]: 0.73 mg/dL
- ABSOLUTE BASOPHIL [3]: 0 CELLS/uL
- ABSOLUTE EOSINOPHIL [3]: 0 CELLS/uL
- ABSOLUTE LYMPHOCYTE [3]: 5898 CELLS/uL
- ABSOLUTE MONOCYTE [3]: 47.67 CELLS/uL
- ABSOLUTE SEGMENTED NEUTROPHIL [3]: 121 CELLS/uL
- BASOPHIL [3]: 0%
- EOSINOPHIL [3]: 0%
- ERYTHROCYTE COUNT [3]: 5.61 x10E6/uL
- HEMATOCRIT [3]: 35.4%
- HEMOGLOBIN [3]: 13.53 G/DL
- LEUKOCYTE COUNT [3]: 6.07 x10E3/uL
- LYMPHOCYTE [3]: 97%
- MEAN CORPUSCULAR HEMOGLOBIN [3]: 24.13 pg
- MEAN CORPUSCULAR HEMOGLOBIN CONCENTRATION [3]: 38.2 G/DL
- MEAN CORPUSCULAR VOLUME [3]: 63.1 fL
- MONOCYTE [3]: 1%
- NEUTROPHIL [3]: 2%
- NUCLEATED RED BLOOD CELLS [3]: 0 /100WBC
- PLATELET COUNT [3]: 1005 x10E3/uL
- ALANINE AMINOTRANSFERASE [3]: 73.33 u/L
- ALBUMIN [3]: 4.33 G/DL
- ALKALINE PHOSPHATASE [3]: 429.33 u/L
- ASPARTATE AMINOTRANSFERASE [3]: 103.33 u/L
- BLOOD UREA NITROGEN [3]: 13.67 mg/dL
- CARBON DIOXIDE [3]: 31.67 mmol/L
- CHLORIDE [3]: 97.5 MEQ/L
- CHOLESTEROL [3]: 76.33 mg/dL
- CREATINE PHOSPHOKINASE [3]: 504 u/L
- CREATININE [3]: 0.1 mg/dL
- GLUCOSE [3]: 139.67 mg/dL
- LACTATE DEHYDROGENASE [3]: 137.67 u/L
- LIPASE [3]: 11.67 u/L
- PHOSPHORUS [3]: 9.73 mg/dL
- POTASSIUM [3]: 5.46 MEQ/L
- SODIUM [3]: 144.3 MEQ/L
- TOTAL BILIRUBIN [3]: 0.13 mg/dL
- TOTAL PROTEIN [3]: 6.27 G/DL
- URIC ACID [3]: 0.57 mg/dL
